# Assay results reported in patent US10670605B2, “Cysteine reactive probes and uses thereof” (The Scripps Research Institute, priority 2015, dated 2020).
# How the values were obtained:
# Test in all cases: Competitive isoTOP-ABPP in situ (fragment-treated cells)
# Type in all cases: cell-based
# [1] = molecular target: T1, cysteines in MDA-MB-231 and Ramos cells (Homo sapiens, UniProt Q9NRW3)
# T1 sequence (Q9NRW3 1-190): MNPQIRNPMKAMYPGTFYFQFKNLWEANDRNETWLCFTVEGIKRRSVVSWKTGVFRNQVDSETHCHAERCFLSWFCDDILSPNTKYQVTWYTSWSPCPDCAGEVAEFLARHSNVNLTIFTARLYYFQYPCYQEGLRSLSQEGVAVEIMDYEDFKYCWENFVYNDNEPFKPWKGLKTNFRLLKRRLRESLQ
# [2] = molecular target: T2, cysteines in MDA-MB-231 and Ramos cells (Homo sapiens, UniProt Q9NX18)
# T2 sequence (Q9NX18 30-166): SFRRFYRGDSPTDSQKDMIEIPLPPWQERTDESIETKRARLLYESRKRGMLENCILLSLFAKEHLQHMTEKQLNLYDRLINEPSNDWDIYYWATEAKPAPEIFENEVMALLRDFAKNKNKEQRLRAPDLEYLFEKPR
# [3] = molecular target: T3, cysteines in MDA-MB-231 and Ramos cells (Homo sapiens, UniProt Q8WV74)
# T3 sequence (Q8WV74 1-236): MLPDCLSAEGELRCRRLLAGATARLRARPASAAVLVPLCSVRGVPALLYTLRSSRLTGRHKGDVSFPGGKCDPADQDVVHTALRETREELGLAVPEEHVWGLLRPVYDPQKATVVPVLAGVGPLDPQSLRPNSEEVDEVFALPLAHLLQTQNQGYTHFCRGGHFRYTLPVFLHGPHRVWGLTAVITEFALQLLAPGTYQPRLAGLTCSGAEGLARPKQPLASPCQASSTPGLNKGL
# [4] = molecular target: cysteines in MDA-MB-231 and Ramos cells (Homo sapiens, UniProt O75362)
# [5] = molecular target: cysteines in MDA-MB-231 and Ramos cells (Homo sapiens, UniProt P04818)
# [6] = molecular target: cysteines in MDA-MB-231 and Ramos cells (Homo sapiens, UniProt P27708); conditions: 200 μM, insitu; for isoTOP-ABPP reactivity P27708_C73 CAD: 231
# [7] = molecular target: T4, cysteines in MDA-MB-231 and Ramos cells (Homo sapiens, UniProt Q9Y679)
# T4 sequence (Q9Y679 1-410): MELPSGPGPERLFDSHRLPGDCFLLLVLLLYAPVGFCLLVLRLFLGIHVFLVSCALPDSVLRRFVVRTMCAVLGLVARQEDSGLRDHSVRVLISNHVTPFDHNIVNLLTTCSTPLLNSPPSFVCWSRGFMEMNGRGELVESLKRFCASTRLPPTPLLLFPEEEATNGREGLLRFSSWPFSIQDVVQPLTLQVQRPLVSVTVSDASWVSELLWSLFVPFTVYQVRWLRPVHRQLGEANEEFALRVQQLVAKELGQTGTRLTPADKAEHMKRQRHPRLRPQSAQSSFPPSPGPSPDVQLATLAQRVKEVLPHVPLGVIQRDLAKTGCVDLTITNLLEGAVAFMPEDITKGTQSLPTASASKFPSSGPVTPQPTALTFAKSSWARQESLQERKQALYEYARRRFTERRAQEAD
# [8] = molecular target: T5, cysteines in MDA-MB-231 and Ramos cells (Homo sapiens, UniProt Q96C19)
# T5 sequence (Q96C19 1-240): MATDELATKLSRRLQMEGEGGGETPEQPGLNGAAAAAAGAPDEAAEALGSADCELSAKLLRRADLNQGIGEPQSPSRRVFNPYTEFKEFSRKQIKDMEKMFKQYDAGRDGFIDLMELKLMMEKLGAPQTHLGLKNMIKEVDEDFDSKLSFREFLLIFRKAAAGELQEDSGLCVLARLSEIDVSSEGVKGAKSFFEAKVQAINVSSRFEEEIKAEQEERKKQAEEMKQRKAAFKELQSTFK
# [9] = molecular target: cysteines in MDA-MB-231 and Ramos cells (Homo sapiens, UniProt P07858)
# [10] = molecular target: cysteines in MDA-MB-231 and Ramos cells (Homo sapiens, UniProt Q6XZF7)
# [11] = molecular target: T6, cysteines in MDA-MB-231 and Ramos cells (Homo sapiens, UniProt Q8WVV9)
# T6 sequence (Q8WVV9 1-542): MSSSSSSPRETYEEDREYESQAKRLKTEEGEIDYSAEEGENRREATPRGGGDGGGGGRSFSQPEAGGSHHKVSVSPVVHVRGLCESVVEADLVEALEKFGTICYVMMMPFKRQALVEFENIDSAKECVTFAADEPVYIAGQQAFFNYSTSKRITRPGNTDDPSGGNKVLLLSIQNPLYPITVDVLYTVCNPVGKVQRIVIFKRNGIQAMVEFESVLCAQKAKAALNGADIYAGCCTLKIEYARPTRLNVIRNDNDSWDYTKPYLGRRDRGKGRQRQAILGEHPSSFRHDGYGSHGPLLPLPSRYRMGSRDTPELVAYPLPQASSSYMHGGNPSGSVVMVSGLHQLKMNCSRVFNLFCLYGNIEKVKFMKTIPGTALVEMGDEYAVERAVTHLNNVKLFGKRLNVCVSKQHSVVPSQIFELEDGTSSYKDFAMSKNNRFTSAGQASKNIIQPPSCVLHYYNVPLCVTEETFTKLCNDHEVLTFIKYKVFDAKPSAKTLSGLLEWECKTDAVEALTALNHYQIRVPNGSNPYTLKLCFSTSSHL
# cysteines in MDA-MB-231 and Ramos cells (Homo sapiens, UniProt O75362), sequence (O75362 whole entry): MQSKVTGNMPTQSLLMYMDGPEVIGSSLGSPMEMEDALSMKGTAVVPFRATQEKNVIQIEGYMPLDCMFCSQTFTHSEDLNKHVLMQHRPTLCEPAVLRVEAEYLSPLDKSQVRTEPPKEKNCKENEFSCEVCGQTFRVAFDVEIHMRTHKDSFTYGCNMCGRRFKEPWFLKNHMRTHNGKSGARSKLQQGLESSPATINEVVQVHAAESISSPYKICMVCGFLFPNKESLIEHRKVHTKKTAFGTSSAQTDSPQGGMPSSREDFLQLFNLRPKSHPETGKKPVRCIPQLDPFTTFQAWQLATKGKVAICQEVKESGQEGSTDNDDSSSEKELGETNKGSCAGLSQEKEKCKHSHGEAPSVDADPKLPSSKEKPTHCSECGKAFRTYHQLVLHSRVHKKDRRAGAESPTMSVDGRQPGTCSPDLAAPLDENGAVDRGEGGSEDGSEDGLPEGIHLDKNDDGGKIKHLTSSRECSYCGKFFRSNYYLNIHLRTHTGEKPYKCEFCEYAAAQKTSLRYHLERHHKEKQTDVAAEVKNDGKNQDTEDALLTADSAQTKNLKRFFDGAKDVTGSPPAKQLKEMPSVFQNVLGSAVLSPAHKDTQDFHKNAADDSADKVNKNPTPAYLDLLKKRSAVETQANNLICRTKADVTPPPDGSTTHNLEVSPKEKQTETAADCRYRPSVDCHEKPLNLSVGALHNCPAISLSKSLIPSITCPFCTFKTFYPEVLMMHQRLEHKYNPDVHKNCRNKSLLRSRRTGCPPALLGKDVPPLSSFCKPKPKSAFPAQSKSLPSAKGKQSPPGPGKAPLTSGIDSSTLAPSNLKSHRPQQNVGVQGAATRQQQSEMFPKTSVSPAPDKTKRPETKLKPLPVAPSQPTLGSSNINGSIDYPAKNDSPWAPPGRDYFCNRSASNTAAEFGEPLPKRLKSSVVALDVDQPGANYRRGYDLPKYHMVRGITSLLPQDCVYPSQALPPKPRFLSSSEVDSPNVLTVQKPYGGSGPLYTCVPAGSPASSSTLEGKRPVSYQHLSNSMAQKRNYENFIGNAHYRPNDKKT
# cysteines in MDA-MB-231 and Ramos cells (Homo sapiens, UniProt P04818), sequence (P04818 whole entry): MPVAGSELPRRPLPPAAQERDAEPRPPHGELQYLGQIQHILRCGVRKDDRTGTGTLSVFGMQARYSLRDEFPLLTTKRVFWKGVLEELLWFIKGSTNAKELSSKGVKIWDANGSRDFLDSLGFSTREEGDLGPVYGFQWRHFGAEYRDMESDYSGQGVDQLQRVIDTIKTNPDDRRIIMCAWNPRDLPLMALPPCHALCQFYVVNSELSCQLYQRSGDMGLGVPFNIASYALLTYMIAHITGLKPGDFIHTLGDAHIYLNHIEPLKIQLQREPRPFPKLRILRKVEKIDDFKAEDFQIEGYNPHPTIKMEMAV
# cysteines in MDA-MB-231 and Ramos cells (Homo sapiens, UniProt P27708), sequence (P27708 whole entry): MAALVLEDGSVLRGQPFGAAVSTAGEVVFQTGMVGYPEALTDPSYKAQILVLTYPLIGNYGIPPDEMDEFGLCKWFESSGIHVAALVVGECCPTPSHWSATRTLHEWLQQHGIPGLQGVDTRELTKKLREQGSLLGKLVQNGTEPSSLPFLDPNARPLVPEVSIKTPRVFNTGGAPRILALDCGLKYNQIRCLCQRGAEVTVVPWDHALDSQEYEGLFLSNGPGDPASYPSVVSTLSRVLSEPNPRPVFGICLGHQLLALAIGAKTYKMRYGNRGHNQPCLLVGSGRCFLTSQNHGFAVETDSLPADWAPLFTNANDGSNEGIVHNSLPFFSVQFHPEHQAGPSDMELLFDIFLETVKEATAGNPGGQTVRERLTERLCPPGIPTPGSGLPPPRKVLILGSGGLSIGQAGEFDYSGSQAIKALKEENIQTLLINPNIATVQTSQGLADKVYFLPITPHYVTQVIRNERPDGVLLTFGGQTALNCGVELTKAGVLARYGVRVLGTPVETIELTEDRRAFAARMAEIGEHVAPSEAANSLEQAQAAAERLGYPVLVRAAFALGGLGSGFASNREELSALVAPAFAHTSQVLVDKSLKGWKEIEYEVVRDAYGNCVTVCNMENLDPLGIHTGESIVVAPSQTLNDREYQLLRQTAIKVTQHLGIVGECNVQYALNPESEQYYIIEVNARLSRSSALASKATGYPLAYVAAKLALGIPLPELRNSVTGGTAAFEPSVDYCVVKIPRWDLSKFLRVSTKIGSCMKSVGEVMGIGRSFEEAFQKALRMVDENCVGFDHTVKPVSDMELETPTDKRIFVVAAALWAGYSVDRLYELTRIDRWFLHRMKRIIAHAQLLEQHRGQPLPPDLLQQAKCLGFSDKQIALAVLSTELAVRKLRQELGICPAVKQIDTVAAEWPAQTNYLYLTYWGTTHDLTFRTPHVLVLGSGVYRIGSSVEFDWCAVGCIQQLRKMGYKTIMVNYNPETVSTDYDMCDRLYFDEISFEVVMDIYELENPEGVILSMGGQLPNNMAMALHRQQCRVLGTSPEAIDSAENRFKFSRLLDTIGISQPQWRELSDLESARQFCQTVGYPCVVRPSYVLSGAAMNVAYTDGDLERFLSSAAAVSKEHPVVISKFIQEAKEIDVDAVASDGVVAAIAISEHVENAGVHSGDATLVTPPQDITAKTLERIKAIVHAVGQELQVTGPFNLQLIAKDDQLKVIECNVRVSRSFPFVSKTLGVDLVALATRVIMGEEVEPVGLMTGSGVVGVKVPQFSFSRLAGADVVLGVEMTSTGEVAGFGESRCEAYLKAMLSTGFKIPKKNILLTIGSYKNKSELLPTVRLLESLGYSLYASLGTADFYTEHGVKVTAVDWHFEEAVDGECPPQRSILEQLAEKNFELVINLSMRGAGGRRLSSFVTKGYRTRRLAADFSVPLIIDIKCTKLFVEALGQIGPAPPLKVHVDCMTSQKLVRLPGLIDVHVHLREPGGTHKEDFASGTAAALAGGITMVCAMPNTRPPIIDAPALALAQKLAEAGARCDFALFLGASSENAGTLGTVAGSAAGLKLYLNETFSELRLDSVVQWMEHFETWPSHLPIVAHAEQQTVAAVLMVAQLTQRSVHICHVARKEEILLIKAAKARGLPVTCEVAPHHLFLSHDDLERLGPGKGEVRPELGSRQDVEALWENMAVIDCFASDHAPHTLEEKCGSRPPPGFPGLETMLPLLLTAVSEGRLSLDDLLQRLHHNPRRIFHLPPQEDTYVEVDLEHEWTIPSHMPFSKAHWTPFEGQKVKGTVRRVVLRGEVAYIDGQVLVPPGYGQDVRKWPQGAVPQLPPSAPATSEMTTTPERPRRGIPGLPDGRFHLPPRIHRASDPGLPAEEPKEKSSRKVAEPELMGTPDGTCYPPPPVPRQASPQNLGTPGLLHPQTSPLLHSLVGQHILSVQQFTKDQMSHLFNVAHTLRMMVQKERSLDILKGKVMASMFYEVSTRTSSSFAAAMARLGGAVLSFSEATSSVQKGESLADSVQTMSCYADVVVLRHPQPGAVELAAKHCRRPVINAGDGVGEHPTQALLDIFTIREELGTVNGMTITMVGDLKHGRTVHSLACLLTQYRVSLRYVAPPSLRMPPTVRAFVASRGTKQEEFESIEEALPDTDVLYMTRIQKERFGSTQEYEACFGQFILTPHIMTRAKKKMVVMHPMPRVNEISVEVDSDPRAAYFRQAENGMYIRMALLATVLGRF
compound,measurement,setting,value
COc1ccc2c(c1)CCCN2C(=O)CCl [compound 2],isoTOP-ABPP reactivity Q9NRW3_C130 APOBEC3C,"[1]; 200 μM, insitu, 231",20.0
same,isoTOP-ABPP reactivity Q9NX18_C83 SDHAF2,"[2]; 200 μM, insitu, 231",3.1
same,isoTOP-ABPP reactivity Q8WV74_C207 NUDT8,"[3]; 200 μM, insitu, 231",20.0
same,isoTOP-ABPP reactivity O75362_C286 ZNF217,"[4]; 200 μM, insitu, 231",8.9
same,isoTOP-ABPP reactivity P04818_C199 TYMS,"[5]; 200 μM, insitu, 231",20.0
same,isoTOP-ABPP reactivity P27708_C73 CAD,[6],3.1
COc1ccc(C2CC(c3cccs3)=NN2C(=O)CCl)cc1 (stereo not drawn) [compound 4],isoTOP-ABPP reactivity Q9Y679_C391 AUP1,[7]; 100 μM in situ 231,20.0
same,isoTOP-ABPP reactivity Q9NRW3_C130 APOBEC3C,[1]; 100 μM in situ 231,20.0
same,isoTOP-ABPP reactivity Q9NX18_C83 SDHAF2,[2]; 100 μM in situ 231,3.0
same,isoTOP-ABPP reactivity Q8WV74_C207 NUDT8,[3]; 100 μM in situ 231,20.0
same,isoTOP-ABPP reactivity P04818_C199 TYMS,[5]; 100 μM in situ 231,20.0
same,isoTOP-ABPP reactivity Q96C19_C172 EFHD2,[8]; 100 μM in situ 231,5.3
same,isoTOP-ABPP reactivity P07858_C211 CTSB,[9]; 100 μM in situ 231,2.3
same,isoTOP-ABPP reactivity Q6XZF7_C691 DNMBP,[10]; 100 μM in situ 231,1.2
COc1cc2c(cc1OC)CN(C(=O)CCl)CC2 [compound 8],isoTOP-ABPP reactivity Q9Y679_C391 AUP1,"[7]; 200 μM, insitu, 231",20.0
same,isoTOP-ABPP reactivity Q8WV74_C207 NUDT8,"[3]; 200 μM, insitu, 231",20.0
same,isoTOP-ABPP reactivity P27708_C73 CAD,[6],20.0
O=C(CCl)N1CCC(Cc2ccccc2)CC1 [compound 9],isoTOP-ABPP reactivity Q96C19_C172 EFHD2,"[8]; 200 μM, insitu, 231",2.8
same,isoTOP-ABPP reactivity P07858_C211 CTSB,"[9]; 200 μM, insitu, 231",5.0
same,isoTOP-ABPP reactivity Q6XZF7_C691 DNMBP,"[10]; 200 μM, insitu, 231",3.4
O=C(CCl)N1CCN(S(=O)(=O)c2ccccc2F)CC1 [compound 10],isoTOP-ABPP ratio Q9NX18_C83,"[2]; 200 μM, insitu, 231",4.4
same,"isoTOP-ABPP ratio, cysteine Q8WV74_C207","[3]; 200 μM, insitu, ramos",20.0
same,isoTOP-ABPP ratio O75362_C286,"[4]; 200 μM, insitu, 231",2.6
same,"isoTOP-ABPP ratio, cysteine P04818_C199","[5]; 200 μM, insitu, 231",1.5
same,isoTOP-ABPP ratio Q96C19_C172,"[8]; 200 μM, insitu, 231",2.4
same,isoTOP-ABPP ratio P07858_C211,"[9]; 200 μM, insitu, 231",7.4
same,"isoTOP-ABPP ratio, cysteine Q6XZF7_C691","[10]; 200 μM, insitu, 231",20.0
same,"isoTOP-ABPP ratio, cysteine Q6XZF7_C691","[10]; 200 μM, insitu, ramos",20.0
Cn1cc(S(=O)(=O)N2CCOCC2)cc1C(=O)NC(=O)CCl [compound 11],"isoTOP-ABPP ratio, cysteine Q9Y679_C391",[7]; 100 μM in situ 231,3.0
same,"isoTOP-ABPP ratio, cysteine Q8WVV9_C464",[11]; 100 μM in situ 231,0.9
same,isoTOP-ABPP ratio Q9NX18_C83,[2]; 100 μM in situ 231,1.1
same,isoTOP-ABPP ratio O75362_C286,[4]; 100 μM in situ 231,1.0
same,isoTOP-ABPP ratio Q96C19_C172,[8]; 100 μM in situ 231,0.9
same,isoTOP-ABPP ratio P07858_C211,[9]; 100 μM in situ 231,1.1
O=C(CCl)NC(=O)NC12CC3CC(CC(C3)C1)C2 [compound 12],"isoTOP-ABPP ratio, cysteine Q8WVV9_C464","[11]; 200 μM, insitu, 231",20.0
same,isoTOP-ABPP ratio Q9NX18_C83,"[2]; 200 μM, insitu, 231",20.0
same,isoTOP-ABPP ratio O75362_C286,"[4]; 200 μM, insitu, 231",20.0
same,isoTOP-ABPP ratio Q96C19_C172,"[8]; 200 μM, insitu, 231",0.9
O=C(CCl)NCCc1c[nH]c2ccccc12 [compound 13],"isoTOP-ABPP ratio, cysteine Q8WV74_C207","[3]; 200 μM, insitu, 231",13.1
same,isoTOP-ABPP ratio O75362_C286,"[4]; 200 μM, insitu, 231",1.1
same,isoTOP-ABPP ratio O75362_C286,"[4]; 200 μM, insitu, ramos",20.0
same,"isoTOP-ABPP ratio, cysteine P27708_C73",[6]; ramos,5.0
same,isoTOP-ABPP ratio Q96C19_C172,"[8]; 200 μM, insitu, 231",0.7
same,isoTOP-ABPP ratio P07858_C211,"[9]; 200 μM, insitu, 231",1.6
same,"isoTOP-ABPP ratio, cysteine Q6XZF7_C691","[10]; 200 μM, insitu, 231",1.6
